As a reminder, the IC50 is the point on the concentration scale where inhibition reaches its midpoint. What is called inhibition is the drop in the measured response relative to a control, in per cent. A word on the Km: it is the substrate concentration at which the rate is half of its maximum.

Results on 15 molecules are retold here after PMC11472328, “Targeting Plasmodium falciparum IspD in the Methyl-D-erythritol Phosphate Pathway: Urea-Based Compounds with Nanomolar Potency on Target and Low-Micromolar Whole-Cell Activity” (Journal of Medicinal Chemistry, 2024).

For one data set, the system named is malaria. The arrangement: method as in Fernandes et al. [6]−[8]. To be noted: children, combination therapy, meta-analysis ref Fernandes et al. [6]−[8]; cited from earlier work.
For a further data set, the target named is EcIspE (Escherichia coli, UniProt P62615). As to the kind of experiment: Activity against auxiliary enzyme EcIspE. The class given is biochemical.
For a further data set, the target named is PK-LDH. As to the kind of experiment: Activity against auxiliary enzymes PK-LDH. The class given is biochemical.
A further data set has as its system E. coli K12. Put plainly: Growth inhibition of E. coli K12. The class given is cell-based. To be noted: Escherichia coli.
For the next data set, the system named is PfNF54. As to the kind of experiment: Whole-cell assay, [3H]-hypoxanthine incorporation. The class given is cell-based, Plasmodium falciparum. To be noted: mean ± SD, n.a. = absence of activity. As to the method: After incubation for 48 h, 0.25 μCi of [^3H]-hypoxanthine was added per well and plates were incubated for an additional 24 h.
Data set [1] deals with T1, PfIspD (Plasmodium falciparum, UniProt Q8I273).
T1 sequence (Q8I273 1-734): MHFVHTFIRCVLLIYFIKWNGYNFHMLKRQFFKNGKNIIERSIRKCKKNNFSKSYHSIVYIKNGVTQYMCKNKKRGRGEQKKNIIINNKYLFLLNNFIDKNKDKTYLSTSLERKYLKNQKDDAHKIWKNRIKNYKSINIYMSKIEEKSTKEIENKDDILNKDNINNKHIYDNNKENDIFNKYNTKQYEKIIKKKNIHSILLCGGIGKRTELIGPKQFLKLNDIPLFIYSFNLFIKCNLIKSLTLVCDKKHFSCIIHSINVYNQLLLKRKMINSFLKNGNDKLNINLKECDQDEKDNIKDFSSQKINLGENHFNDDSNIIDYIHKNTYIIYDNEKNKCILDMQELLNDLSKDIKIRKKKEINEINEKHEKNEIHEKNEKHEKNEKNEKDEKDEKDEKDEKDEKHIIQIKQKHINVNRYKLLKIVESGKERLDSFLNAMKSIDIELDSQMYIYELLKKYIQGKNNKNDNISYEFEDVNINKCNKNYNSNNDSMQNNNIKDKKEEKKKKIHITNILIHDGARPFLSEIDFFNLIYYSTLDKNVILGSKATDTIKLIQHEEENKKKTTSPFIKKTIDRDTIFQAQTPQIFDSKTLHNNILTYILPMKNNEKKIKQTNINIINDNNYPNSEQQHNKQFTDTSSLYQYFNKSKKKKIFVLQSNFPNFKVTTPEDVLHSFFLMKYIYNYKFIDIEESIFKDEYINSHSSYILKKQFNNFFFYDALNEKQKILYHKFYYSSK
Put plainly: Determination of enzyme kinetics, LC-MS based IspD assay. The class given is biochemical. To be noted: our results, n = 2, mean ± SD; read-out: Km^CTP. Here is the method: (§1) A volume of 80 μL Buffer A containing 100 mM Tris-HCl pH 7.6, 1 mM DTT, 1 mM MgCl2, 50 nM PfIspD were added to well A1 96-well plate while 50 μL were added to the rest of the wells. A volume of 20 μL of 10 mM CTP was added to the first well, then a serial dilution was conducted by moving 50 μL. To start the reaction, we then added on buffer A 50 μL of Buffer B containing 100 mM Tris-HCl pH 7.6, 1 mM DTT, and 1 mM MEP. The assay plate was incubated at 37 °C for 40 min, after which, the protein was denaturated by heating up the plate to 95 °C for 5 min. The plate was then centrifuged at 4000 rpm at 4 °C for 5 min to precipitate the protein. […] Thereafter, 10 μL of each of the supernatants from the assay plate were added to the plate containing the mixture with our internal standard. The plate was centrifuged again at 4000 rpm at 4 °C for 5 min, after which, 50 μL of the supernatant was transferred to an LC-MS plate and closed with a silicon cover. LC-MS conditions and data analysis methods we used were described above. The peak area for each conditions were used to calculate the Michaelis–Menten kinetic parameters using Graphpad Prism v 9. Measurements were performed in duplicates, repeated at least two times from two to three independent experiments.

The next data set has as its system IspD. The settings on record: cited from earlier work.
Data set [2] deals with T1, PfIspD. Put plainly: Photometric in vitro PfIspD assay. The class given is biochemical. The settings on record: mean ± SD, n ≥ 2; n.a. = absence of activity. Here is the method:
Dilution series (1:2) of inhibitors in DMSO covered the concentration range of approximately 200–0.01 μM. After finishing the dilution series, the final volume of compound solution in DMSO per well was 3 μL. For the IspD assay, 30 μL aliquots of a solution containing 100 mM Tris-HCl, pH 7.6, 0.02% NaN3, 1 mM MEP and 1 mM CTP were added to microplate wells preloaded with 3 μL of DMSO containing test compounds. […] Initial rates were estimated using Softmax Pro 6.1 software (Molecular Devices, Biberach an der Riss, Germany). IC50 values were determined with a nonlinear regression method using the program Dynafit.[21]

The subject of data set [3] is Pf3D7 (WT) and MMV008138 resistant parasites (R2 and R3). As to the kind of experiment: IDP rescue assay. To be noted: 200 μM IDP, 72 h. The class given is cell-based, Plasmodium falciparum. As to the method: The parasite growth was quantified by measuring DNA content using PicoGreen assay (Invitrogen). IC50 values were calculated by nonlinear regression analysis using GraphPad Prism software and reflect the mean ± standard error of the mean (SEM) from at least three independent experiments. Statistical comparison of the values was done via one-way ANOVA.

Data set [4] has as its system Mtb H37Rv mCherry 10 strain. As to the kind of experiment: MIC 90 against Mtb H37Rv mCherry 10 strain. The class given is cell-based. To be noted: Mycobacterium tuberculosis, read-out: MIC 90 (growth inhibition) of Mtb H37Rv mCherry 10 strain.
Substrate in data set [5]: C[C@](O)(CO)[C@H](O)COP(=O)(O)O
Put plainly: Determination of enzyme kinetics, LC-MS based IspD assay. The settings on record: other: our results, n = 2, mean ± SD; pH 7.6. The class given is biochemical, Plasmodium falciparum. Here is the method:
as §1

In brackets after ≈: the same amount, converted by molar mass. Like-named read-outs stand apart in the source and are kept apart here. Bounds are passed on as bounds.

Chain of EcIspE (P62615 whole entry): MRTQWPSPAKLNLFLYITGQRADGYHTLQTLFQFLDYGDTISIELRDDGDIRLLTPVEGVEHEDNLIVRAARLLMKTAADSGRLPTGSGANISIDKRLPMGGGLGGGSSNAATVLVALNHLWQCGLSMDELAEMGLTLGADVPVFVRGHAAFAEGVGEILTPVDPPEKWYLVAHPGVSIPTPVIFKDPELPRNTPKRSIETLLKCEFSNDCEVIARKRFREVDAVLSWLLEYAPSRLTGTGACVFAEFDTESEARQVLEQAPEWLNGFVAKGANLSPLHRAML

Consider `O=CN(O)CCCP(=O)(O)O` [fosmidomycin], for which the cure rate with malaria is 85%.

`CS(=O)(=O)c1ccc(NC(=O)Nc2cccc(S(=O)(=O)N3CCCC3)c2)cc1` [Compound 9, 1-(4-(Methylsulfonyl)phenyl)-3-(3-(pyrrolidin-1-ylsulfonyl)phenyl)urea]: the IC50 at EcIspE and on PK-LDH was greater than 500 µM throughout.

For the molecule `COC(=O)c1ccc(NC(=O)Nc2cccc(S(=O)(=O)N3CCCC3)c2)cc1` [Compound 7, Methyl 4-(3-(3-(Pyrrolidin-1-ylsulfonyl)phenyl)ureido)benzoate], the values for the IC50 against EcIspE and against PK-LDH were greater than 500 µM and 242 ± 72 µM, respectively.

Molecule `O=C(Nc1ccc(Cl)cc1)Nc1cccc(S(=O)(=O)N2CCCC2)c1` [Compound 5, 1-(4-Chlorophenyl)-3-(3-(pyrrolidin-1-ylsulfonyl)phenyl)urea] gave an inhibition at 100 µM with E. coli K12 of 45 ± 6%.

Regarding `O=C(Nc1ccc(C(F)(F)F)cc1)Nc1cccc(S(=O)(=O)N2CCCC2)c1` [Compound 11, 1-(3-(Pyrrolidin-1-ylsulfonyl)phenyl)-3-(4-(trifluoromethyl)phenyl)urea], the IC50 at EcIspE (auxiliary enzyme, read-out: EcIspE (IC50 µM)) was 73 ± 15 µM; against PK-LDH, 73 ± 15 µM.

In the case of `Nc1ccc(NC(=O)Nc2cccc(S(=O)(=O)N3CCCC3)c2)cc1` [Compound 4, 1-(4-Aminophenyl)-3-(3-(pyrrolidin-1-ylsulfonyl)phenyl)urea], the “PfNF54 (IC50 μM)” value in the data set with PfNF54 is given as “lacking whole-cell activity”.

For the molecule `Nc1ccn([C@@H]2O[C@H](COP(=O)(O)OP(=O)(O)OP(=O)(O)O)[C@@H](O)[C@H]2O)c(=O)n1` [CTP, cytidine triphosphate], the Km at PfIspD [1] was 58 ± 9 µM; with IspD (ref Ghavami et al.[18], read-out: Km^CTP) it was 9 ± 3 µM; in the data set on IspD (ref Imlay et al.[12], read-out: Km^CTP), 59 ± 4 µM.

For “1-(4-Methyl-3-(morpholinosulfonyl)phenyl)-3-(4-nitrophenyl)urea [Compound 33]”, the IC50 at PfIspD [2] was greater than 10000 nM.

In the case of `C[C@](O)(CO)[C@H](O)COP(=O)(O)O` [MEP, 2-C-methylerythritol-D-erythritol-4-phosphate], the Michaelis constant (Km) with IspD (ref Ghavami et al.[18], read-out: Km^MEP) was 12 ± 3 µM; with IspD (ref Wu et al.[14], read-out: Km^MEP), 61 µM.

Turning to `O=C(Nc1ccc([N+](=O)[O-])cc1)Nc1ccc(F)c(S(=O)(=O)N2CCOCC2)c1` [Compound 31, 1-(4-Fluoro-3-(morpholinosulfonyl)phenyl)-3-(4-nitrophenyl)urea], the results for the IC50 against EcIspE and against PK-LDH were 75 ± 11 µM and greater than 500 µM, respectively.

Regarding `O=C(Nc1ccc([N+](=O)[O-])cc1)Nc1cccc(S(=O)(=O)N2CCOCC2)c1` [Compound 27, 1-(3-(Morpholinosulfonyl)phenyl)-3-(4-nitrophenyl)urea], the IC50 against EcIspE was greater than 500 µM; against PK-LDH it was 104 ± 19 µM.

As to `N#Cc1ccc(NC(=O)Nc2cccc(S(=O)(=O)N3CCCC3)c2)cc1` [Compound 10, 1-(4-Cyanophenyl)-3-(3-(pyrrolidin-1-ylsulfonyl)phenyl)urea], in data set [3], the “effect of IDP supplementation on sensitivity” value was “equalized the sensitivity of the resistant strains and the wild type”. Besides, in the data set on E. coli K12, testing at 100 µM gave an inhibition of 46 ± 4%. Besides, in data set [4], the MIC90 is 64 µM (≈ 23.7 µg/mL).

`O=C(Nc1ccc([N+](=O)[O-])cc1)Nc1cccc(S(=O)(=O)N2CCCCC2)c1` [Compound 26, 1-(4-Nitrophenyl)-3-(3-(piperidin-1-ylsulfonyl)phenyl)urea]: the IC50 against EcIspE is 49 ± 7 µM; against PK-LDH it was greater than 500 µM.

Turning to `O=C(Nc1ccc([N+](=O)[O-])cc1)Nc1cccc(S(=O)(=O)N2CCCC2)c1` [Compound 8, 1-(4-Nitrophenyl)-3-(3-(pyrrolidin-1-ylsulfonyl)phenyl)urea], testing at 100 µM in the data set on E. coli K12 gave an inhibition of 14 ± 5%.

B1: PfIspD (Plasmodium falciparum 3D7) (protein)
chain: T1 sequence (Q8I273 1-734)
With B1, in [5], the Km turned out to be 46 ± 3 µM.
